Tests used:
Format in all cases: biochemical
[1] = molecular target: T1, SERCA2a (cardiac sarcoplasmic reticulum Ca2+-ATPase) (Sus scrofa, UniProt P11607); test: NADH-coupled ATPase assay (activation; bell-shaped curve, aggregation suspected at high concentration)
T1 construct: gene ATP2A2; native SERCA2a in enriched pig cardiac SR microsomes
From the text: NADH-coupled ATPase assay (activation; bell-shaped curve, aggregation suspected at high concentration) on SERCA2a (cardiac sarcoplasmic reticulum Ca2+-ATPase) | CP-154526 also activates SERCA2a in the high nM to low µM range, with an observed maximal increase in Vmax

Na+/K+-ATPase NKA-α1 = molecular target: T2, Na+/K+-ATPase NKA-α1 (Sus scrofa, UniProt P05024); test: ATPase activity assay
T2 construct: gene ATP1A1

[2] = molecular target: T1, SERCA2a (cardiac sarcoplasmic reticulum Ca2+-ATPase); test: NADH-coupled ATPase assay, ten-point concentration-response (activation)

T1 sequence (P11607 1-997 isoform P11607-2): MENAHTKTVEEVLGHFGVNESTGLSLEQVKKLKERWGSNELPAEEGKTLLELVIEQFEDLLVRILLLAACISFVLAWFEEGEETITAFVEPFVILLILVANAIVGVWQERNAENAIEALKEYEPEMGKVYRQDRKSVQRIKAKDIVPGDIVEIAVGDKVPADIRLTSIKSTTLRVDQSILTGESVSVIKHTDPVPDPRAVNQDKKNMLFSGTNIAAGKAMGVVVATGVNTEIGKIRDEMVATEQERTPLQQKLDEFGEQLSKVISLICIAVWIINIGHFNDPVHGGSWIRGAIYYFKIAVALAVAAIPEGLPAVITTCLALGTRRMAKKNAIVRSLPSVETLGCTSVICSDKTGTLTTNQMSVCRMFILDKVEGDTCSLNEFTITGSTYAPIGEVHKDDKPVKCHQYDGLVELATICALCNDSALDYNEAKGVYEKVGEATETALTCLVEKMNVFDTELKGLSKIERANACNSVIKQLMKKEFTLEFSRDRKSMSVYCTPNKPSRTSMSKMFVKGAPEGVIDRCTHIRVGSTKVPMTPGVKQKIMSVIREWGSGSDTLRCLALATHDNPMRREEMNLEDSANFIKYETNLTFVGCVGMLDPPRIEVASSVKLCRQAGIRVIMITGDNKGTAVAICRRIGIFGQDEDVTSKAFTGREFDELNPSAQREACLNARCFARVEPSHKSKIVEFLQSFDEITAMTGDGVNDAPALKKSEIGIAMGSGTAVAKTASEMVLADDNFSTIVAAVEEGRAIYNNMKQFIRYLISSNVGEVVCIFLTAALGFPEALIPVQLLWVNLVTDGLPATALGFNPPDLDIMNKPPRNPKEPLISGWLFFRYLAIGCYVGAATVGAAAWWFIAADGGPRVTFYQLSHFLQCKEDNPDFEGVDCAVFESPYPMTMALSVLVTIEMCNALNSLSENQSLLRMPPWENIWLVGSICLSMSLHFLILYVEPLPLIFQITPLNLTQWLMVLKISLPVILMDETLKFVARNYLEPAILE

Q: Which “NADH-coupled ATPase assay (activation); bell-shaped curve, aggregation suspected” value [1] does the source give for `CCCCN(CC)c1nc(C)nc2c1c(C)cn2-c1c(C)cc(C)cc1C` [CP-154526, N-butyl-N-ethyl-2,5-dimethyl-7-(2,4,6-trimethylphenyl)pyrrolo[2,3-d]pyrimidin-4-amine] here?
A: Its value is 28% maximal increase in Vmax at 2.5.

Q: `C[C@]12CC/C(=N\OCCN)C[C@@H]1C(=O)C[C@@H]1[C@@H]2CC[C@]2(C)C(=O)CC[C@@H]12` [istaroxime, (3E,5S,8R,9S,10R,13S,14S)-3-(2-aminoethoxyimino)-10,13-dimethyl-1,2,4,5,7,8,9,11,12,14,15,16-dodecahydrocyclopenta[a]phenanthrene-6,17-dione] was tested. Which IC50 (Na+/K+-ATPase NKA-α1) did it give?
A: The IC50 was 0.47 µM.

Q: With `Cc1ccc2cccc(NC(=O)c3ccc(OC(C)C)cc3)c2n1` [CDN1163, N-(2-methylquinolin-8-yl)-4-propan-2-yloxybenzamide] as the compound, how does the EC50 [2] read?
A: The EC50 was 2.3 µM.
